Laboratory results published in the NIST ThermoML archive (doi:10.1016/j.fluid.2007.04.014).
± gives the expanded uncertainty stated by the source.

Assays:
[1] = Crystal; Closed cell (Static) method
[2] = Solid-liquid equilibrium temperature; details: Crystal, Closed cell (Static) method

With `CCCCCCCCCCCCCCCCC` [heptadecane] the Normal melting temperature [1] was 22.20 ± 0.4 °C, the Solid-liquid equilibrium temperature ([2]; 20800 kPa) was 299.75 ± 0.46 K and the Solid-liquid equilibrium temperature ([2]; 40100 kPa) was 304.05 ± 0.48 K. For the same compound, the Solid-liquid equilibrium temperature ([2]; 60100 kPa) was 308.3 ± 0.49 K, the Solid-liquid equilibrium temperature ([2]; 80100 kPa) was 312.4 ± 0.5 K and the Solid-liquid equilibrium temperature ([2]; 99300 kPa) was 316.5 ± 0.51 K.
